Structures can show the parent of a compound that is named as a salt.
Columns and labels:
[1] = Stability test: physical stability by XRPD under four environmental conditions; assay type: physicochemical; conditions: for Crystal form, after nitrogen purging at 60° C. for 2 h / Crystal form, after 40° C./75% RH for one week / Crystal form, after drying at 60 ° C. overnight / Crystal form, after nitrogen purging overnight at room: XRPD; for Crystal form, after nitrogen purging at 60° C. for 2 h / Crystal form, after drying at 60 ° C. overnight / Crystal form, after nitrogen purging overnight at room: dihydrochloride; for Physical stability after standing under the four conditions: conditions 1 to 4; for Crystal form, after 40° C./75% RH for one week / Crystal form, after drying at 60 ° C. overnight: open bottle; for Crystal form, after nitrogen purging overnight at room: room temperature
Method: The physical stability of polymorph forms P, F and J are studied under the following four different environmental conditions.
10 mg to 15 mg of polymorph forms P, F and J are each weighed and placed in a 1.5 mL glass bottle, and the glass bottle is placed open for one week in a constant temperature and humidity box under the conditions of 40° C. and 75% RH, and then XRPD tests are carried out on the polymorph forms P, F and J to determine whether the crystal forms of the samples change. FIGS. 11 to 13 are XRPD comparative patterns of polymorph forms P, F and J before and after one week of storage at 40° C. and 75% RH, respectively.
10 mg to 15 mg of polymorph forms P, F and J are each weighed and placed in a 1.5 mL glass bottle, and the glass bottle is placed open overnight in a constant temperature drying oven under the condition of 60° C. Then XRPD test is carried out on the polymorph forms P, F and J to determine whether the crystal forms of the samples change. FIGS. 14 to 16 are XRPD comparative patterns of the polymorph forms P, F and J before and after being placed overnight under a drying condition of 60° C., respectively.
10 mg to 15 mg of polymorph forms P, F and J are each weighed and placed in a 1.5 mL glass bottle, and nitrogen is purged for 2 h under the condition of 60° C. in a nitrogen blower, and then XRPD tests are carried out on the polymorph forms P, F and J to determine whether the crystal forms of the samples change. FIGS. 17 to 19 are XRPD comparative patterns of the polymorph forms P, F and J before and after nitrogen purging for 2 h at 60° C., respectively.
10 mg to 15 mg of polymorph forms P, F and J are each weighed and placed in a 3 mL glass bottle, nitrogen is blown overnight at room temperature in a nitrogen blower, and then XRPD tests are carried out on the polymorph forms P, F and J to determine whether the crystal forms of the samples change. FIGS. 20 to 22 are XRPD comparative patterns of the polymorph forms P, F and J before and after nitrogen purging overnight at room temperature, respectively.
Judging from XRPD comparative patterns of various polymorph forms, the physical stability properties of the polymorph forms P, F and J are obtained, and the results are shown in Table 8.

[2] = system: SPF-grade SD rats; assay: Forced swimming test; assay type: in vivo; conditions: for antidepressant effect in forced swimming test (in words): rats, dihydrochloride; for Behavior duration, Static / Behavior duration, Swimming / Behavior duration, Wall climbing / Number of behaviors, Static / Number of behaviors, Swimming / Number of behaviors, Wall climbing: x ± SEM
Method: Forced swimming test is used to test the antidepressant effects of polymorph forms P, F, O, B and J.
the swimming test equipment is a transparent glass round cylinder with a height of 46 cm and an inner diameter of 20 cm, the test water temperature is 23° C.˜25° C., the test water depth is 30 cm, and each cylinder is used only once.
(§1) 300 mg of a polymorph form P is weighed with an electronic balance, and the polymorph form P is dissolved with 0.9% normal saline, and finally the volume is fixed to 100 mL with 0.9% normal saline, at this time, the concentration of dihydrochloride in the experimental reagent is 3 mg/mL for later use.
as §1, with “600” for “300”, “6” for “3”
400 mg of desipramine (DMI) is weighed with an electronic balance, DMI is dissolved with 0.9% normal saline, and then the volume is fixed to 100 mL with 0.9% normal saline for later use.
Forty SPF-grade SD rats are prepared and randomly divided into 4 groups, namely vehicle control group, positive control group, experimental group 1 and experimental group 2, with 10 rats in each group. The day before the test, the rats were placed in water for 15 min to pre-swim for 15 min in advance to adapt to the swimming test environment, then taken out and dried, placed in the cage under an infrared lamp for 15 min and then placed in the original cage. After 24 h, a formal swimming test is conducted, that is, the rats are put into water again after 24 h, and the rats are continuously observed for 5 min. The swimming process are needed to be photographed. The drug is administered during two swimming sessions.
The positive control group containing DMI is administered three times, at 23.5 h, 5 h and 1 h before the formal swimming test respectively. Vehicle control group, experimental group 1 and experimental group 2 are each administered only once and subcutaneously within 1 h.
The behaviors of the rats are scored by the scorer every 5 seconds after recording the experiment.
1) Static—when the rat floats on the water surface without struggling and moves only to keep its head above the water surface, the rat is evaluated as static;
2) Swimming—if the rats have obvious swimming behaviors, not only to keep their heads above the water surface, or to travel around in a round cylinder, they are evaluated as swimming;
3) Wall climbing—the rats' front paws have obvious behavior of entering and leaving the water surface, usually, rats are evaluated as wall climbing in front of the round cylinder wall.
All behavioral are scored by a single person. To avoid bias of observation, the scorer only observed and scored without knowing the administration situations. Then multiple test fragments are randomly selected, and the scorer will score the second round to determine the accuracy of observation. The test video is scored again by the second scorer to determine the accuracy between scorers. The second scorer are also required to observe without knowing the drug administration. Finally, in order to determine the effectiveness of the method, the first scorer scored again and recorded the duration of various behaviors with a stopwatch.
SPSSwin11.0 software is used for variance analysis. One-way variance analysis is used for homogeneity of variance, and Dunnett test is used for heterogeneity of variance.

[3] = Experiment group 1, 30 mg/kg Sc once
[4] = Experiment group 2, 60 mg/kg Sc once

| SMILES | Crystal form, after nitrogen purging at 60° C. for 2 h [1] | Physical stability after standing under the four conditions [1] | Crystal form, after 40° C./75% RH for one week [1] | Crystal form, after drying at 60 ° C. overnight [1] | Crystal form, after nitrogen purging overnight at room [1] | antidepressant effect in forced swimming test (in words) [2] | also measured |
| --- | --- | --- | --- | --- | --- | --- | --- |
| CC1CCN(C(=O)c2ccc([C@H](c3cccc(O)c3)N3C[C@@H](C)N(Cc4cccc(F)c4)C[C@@H]3C)cc2)CC1 [Polymorph form F, (4-((R)-((2S,5R)-4-(3-fluorobenzyl)-(2,5-dimethylpiperazine-1-yl)(3-hydroxyphenyl)methyl)phenyl)(4-methylpiperidine-1-yl)methanone dihydrochloride] | invariability | good stability | invariability | invariability | invariability | effectively reduce the static times and duration of forced swimming in rats | – |
| CC1CCN(C(=O)c2ccc([C@H](c3cccc(O)c3)N3C[C@@H](C)N(Cc4cccc(F)c4)C[C@@H]3C)cc2)CC1 [Polymorph form B, (4-((R)-((2S,5R)-4-(3-fluorobenzyl)-(2,5-dimethylpiperazine-1-yl)(3-hydroxyphenyl)methyl)phenyl)(4-methylpiperidine-1-yl)methanone dihydrochloride] | – | – | – | – | – | effectively reduce the static times and duration of forced swimming in rats | – |
| CC1CCN(C(=O)c2ccc([C@H](c3cccc(O)c3)N3C[C@@H](C)N(Cc4cccc(F)c4)C[C@@H]3C)cc2)CC1 [Polymorph form O, (4-((R)-((2S,5R)-4-(3-fluorobenzyl)-(2,5-dimethylpiperazine-1-yl)(3-hydroxyphenyl)methyl)phenyl)(4-methylpiperidine-1-yl)methanone dihydrochloride] | – | – | – | – | – | effectively reduce the static times and duration of forced swimming in rats | – |
| CC1CCN(C(=O)c2ccc([C@H](c3cccc(O)c3)N3C[C@@H](C)N(Cc4cccc(F)c4)C[C@@H]3C)cc2)CC1 [Polymorph form P, (4-((R)-((2S,5R)-4-(3-fluorobenzyl)-(2,5-dimethylpiperazine-1-yl)(3-hydroxyphenyl)methyl)phenyl)(4-methylpiperidine-1-yl)methanone dihydrochloride] | invariability | good stability | invariability | invariability | invariability | better antidepressant effect | Behavior duration, Static [2, 3]: 45.5 ± 7.5 s; Behavior duration, Swimming [2, 3]: 142.5 ± 21.5 s; Behavior duration, Wall climbing [2, 3]: 114.0 ± 19.0 s; Number of behaviors, Static [2, 3]: 9.1 ± 1.5 times; Number of behaviors, Swimming [2, 3]: 28.5 ± 4.3 times; Number of behaviors, Wall climbing [2, 3]: 22.8 ± 3.8 times; Behavior duration, Static [2, 4]: 88.5 ± 8.0 s; Behavior duration, Swimming [2, 4]: 122.0 ± 14.0 s; Behavior duration, Wall climbing [2, 4]: 91.0 ± 5.5 s; Number of behaviors, Static [2, 4]: 17.7 ± 1.6 times; Number of behaviors, Swimming [2, 4]: 24.4 ± 2.8 times; Number of behaviors, Wall climbing [2, 4]: 18.2 ± 1.1 times |
| CC1CCN(C(=O)c2ccc([C@H](c3cccc(O)c3)N3C[C@@H](C)N(Cc4cccc(F)c4)C[C@@H]3C)cc2)CC1 [Polymorph form J, (4-((R)-((2S,5R)-4-(3-fluorobenzyl)-(2,5-dimethylpiperazine-1-yl)(3-hydroxyphenyl)methyl)phenyl)(4-methylpiperidine-1-yl)methanone dihydrochloride] | – | – | invariability | – | – | effectively reduce the static times and duration of forced swimming in rats | – |

Reference: patent US10730851B2, “Polymorph of triaryldimethylpiperazine dihydrochloride and preparation method and application thereof” (priority 2016, dated 2020)
